Each molecule was assayed against T1, glutaminase (GAC) (Homo sapiens, UniProt O94925) (assay: Glutaminase (GAC) coupled endpoint enzymatic assay (glutamate dehydrogenase/diaphorase/resazurin, Ex544/Em590)). Details: inhibition of glutaminase, tested in an assay of Example A or Example B; class symbols A-E.
T1 sequence (O94925 55-598 isoform O94925-3 limits assumed): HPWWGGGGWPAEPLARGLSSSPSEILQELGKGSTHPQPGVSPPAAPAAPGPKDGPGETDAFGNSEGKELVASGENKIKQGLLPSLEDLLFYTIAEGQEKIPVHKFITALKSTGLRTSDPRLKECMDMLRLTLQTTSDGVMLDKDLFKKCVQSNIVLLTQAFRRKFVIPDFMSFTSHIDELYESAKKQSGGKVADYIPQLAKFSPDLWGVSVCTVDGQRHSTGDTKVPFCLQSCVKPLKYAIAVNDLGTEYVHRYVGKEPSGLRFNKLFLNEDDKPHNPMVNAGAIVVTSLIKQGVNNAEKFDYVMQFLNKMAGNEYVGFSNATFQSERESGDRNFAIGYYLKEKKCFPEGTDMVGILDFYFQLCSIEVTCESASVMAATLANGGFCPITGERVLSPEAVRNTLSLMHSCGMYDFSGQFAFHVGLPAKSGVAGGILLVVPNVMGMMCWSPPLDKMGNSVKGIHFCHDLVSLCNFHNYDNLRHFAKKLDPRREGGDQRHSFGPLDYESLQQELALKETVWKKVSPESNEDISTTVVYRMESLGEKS
Format: biochemical
From the text: In certain embodiments, exemplary compounds of Formula I include the compounds described in Table 1 and in the Examples. A compound described herein may be tested for its ability to inhibit glutaminase, e.g., by an assay as described in the Examples. For simplicity, the inhibition activity of these compounds is represented as an IC50 tested in an assay of Example A or Example B in Table 1. […] “N/A” refers to compounds wherein the IC50 is unavailable.
In this example, the enzymatic activity of glutaminase is measured through a coupled endpoint assay. Glutamine and phosphate are supplied to GAC at a concentration equal to Km and AC50, respectively, and GAC concentration is adjusted to give a linear reaction for 60 minutes. The glutamate produced is converted to 2-OG by a kinetic excess of glutamate dehydrogenase. This second step is configured for 2× Km for NAD, since excess NAD is inhibitory. However, a kinetic excess of the third coupling enzyme, diaphorase, recycles NAD from NADH to keep the NAD concentration constant during the timecourse of the assay. Diaphorase, also supplied in kinetic excess, oxidizes NADH produced by GDH back to NAD with the concomitant reduction of rezasurin to the highly fluorescent resorufin. Resorufin in measured after the assay is stopped with SDS by Ex544/Em590. A reduction in the signal indicates inhibition of some component of the coupled enzyme system. Prospective hits are counterscreened against GDH/diaphorase alone to remove hits to the coupling enzyme system in a second assay.
2. Buffers 2× Buffer (300 mM NaCl, 100 mM HEPES pH 8.5, 0.1% BSA, 0.5 mM EDTA, 100 mM sodium phosphate pH 8.5) 5× Substrate Mix (1× Buffer final concentration, with 13 mM glutamine, 100 μM resazurin, 50 μg/ml diaphorase) 1.2× Enzyme Mix (1× Buffer final concentration, with 0.875 μg/ml GAC, 1.56 mM NAD, 6.25 units/ml GDH) Stop Mix (6% SDS in ddH2O) Reaction Procedure 1. Add 1 μl compound in 100% DMSO 2. Add 40 μl of Enzyme Mix and incubate for 60 minute at room temperature 3. Add 10 μl of Substrate Mix to start reaction 4. Stop reaction with 25 μl of 6% SDS and read Ex544 Em 590

Structure (SMILES)	IC50 [nM]
O=C(Cc1ccc(Cl)cc1)Nc1nnc([C@H]2CCC[C@H](c3nnc(NC(=O)Cc4ccc(Cl)cc4)s3)C2)s1 [Compound 50]	100 to 500
Nc1cccc(CC(=O)Nc2nnc([C@H]3CCC[C@H](c4nnc(NC(=O)Cc5cccc(N)c5)s4)C3)s2)c1 [Compound 53, N,N′-(5,5′-((1S,3S)-cyclohexane-1,3-diyl)bis(1,3,4-thiadiazole-5,2-diyl))bis(2-(3-aminophenyl)acetamide)]	< 100
CC(=O)Nc1ccccc1CC(=O)Nc1nnc([C@H]2CCC[C@H](c3nnc(NC(=O)Cc4ccccc4NC(C)=O)s3)C2)s1 [Compound 55, N,N′-(5,5′-((1S,3S)-cyclohexane-1,3-diyl)bis(1,3,4-thiadiazole-5,2-diyl))bis(2-(2-acetamidophenyl)acetamide)]	100 to 500
O=C(Nc1nnc([C@H]2CCC[C@H](c3nnc(NC(=O)C4CCCC4)s3)C2)s1)C1CCCC1 [Compound 62, N,N′-(5,5′-((1S,3S)-cyclohexane-1,3-diyl)bis(1,3,4-thiadiazole-5,2-diyl))dicyclopentanecarboxamide]	1000 to 2000
CC(C)(CO)C(=O)Nc1nnc([C@H]2CCC[C@H](c3nnc(NC(=O)C(C)(C)CO)s3)C2)s1 [Compound 63, N,N′-(5,5′-((1S,3S)-cyclohexane-1,3-diyl)bis(1,3,4-thiadiazole-5,2-diyl))bis(3-hydroxy-2,2-dimethylpropanamide)]	500 to 1000
O=C(Cc1ccc([N+](=O)[O-])cc1)Nc1nnc([C@H]2CCC[C@H](c3nnc(NC(=O)Cc4ccc([N+](=O)[O-])cc4)s3)C2)s1 [Compound 64, N,N′-(5,5′-((1S,3S)-cyclohexane-1,3-diyl)bis(1,3,4-thiadiazole-5,2-diyl))bis(2-(4-nitrophenyl)acetamide)]	1000 to 2000
CC(=O)Nc1cccc(CC(=O)Nc2nnc([C@H]3CCC[C@H](c4nnc(NC(=O)Cc5cccc(NC(C)=O)c5)s4)C3)s2)c1 [Compound 65, N,N′-(5,5′-((1S,3S)-cyclohexane-1,3-diyl)bis(1,3,4-thiadiazole-5,2-diyl))bis(2-(3-acetamidophenyl)acetamide)]	< 100
CS(=O)(=O)c1ccc(CC(=O)Nc2nnc([C@H]3CCC[C@H](c4nnc(NC(=O)Cc5ccc(S(C)(=O)=O)cc5)s4)C3)s2)cc1 [Compound 66, N,N′-(5,5′-((1S,3S)-cyclohexane-1,3-diyl)bis(1,3,4-thiadiazole-5,2-diyl))bis(2-(4-(methylsulfonyl)phenyl)acetamide)]	< 100
O=C(Cc1cccc([N+](=O)[O-])c1)Nc1nnc([C@H]2CCC[C@H](c3nnc(NC(=O)Cc4cccc([N+](=O)[O-])c4)s3)C2)s1 [Compound 69, N,N′-(5,5′-((1S,3S)-cyclohexane-1,3-diyl)bis(1,3,4-thiadiazole-5,2-diyl))bis(2-(3-nitrophenyl)acetamide)]	< 100
N#Cc1ccccc1CC(=O)Nc1nnc([C@H]2CCC[C@H](c3nnc(NC(=O)Cc4ccccc4C#N)s3)C2)s1 [Compound 72, N,N′-(5,5′-((1S,3S)-cyclohexane-1,3-diyl)bis(1,3,4-thiadiazole-5,2-diyl))bis(2-(2-cyanophenyl)acetamide)]	< 100
O=C(CC1CCCO1)Nc1nnc([C@H]2CCC[C@H](c3nnc(NC(=O)CC4CCCO4)s3)C2)s1 (stereo partly drawn) [Compound 77, N,N′-(5,5′-((1S,3S)-cyclohexane-1,3-diyl)bis(1,3,4-thiadiazole-5,2-diyl))bis(2-(tetrahydrofuran-2-yl)acetamide)]	1000 to 2000
COc1cc(CC(=O)Nc2nnc([C@H]3CCC[C@H](c4nnc(NC(=O)Cc5ccc(F)c(OC)c5)s4)C3)s2)ccc1F [Compound 78, N,N′-(5,5′-((1S,3S)-cyclohexane-1,3-diyl)bis(1,3,4-thiadiazole-5,2-diyl))bis(2-(4-fluoro-3-methoxyphenyl)acetamide)]	100 to 500
Cc1ccccc1CC(=O)Nc1nnc([C@H]2CCC[C@H](c3nnc(NC(=O)Cc4ccccc4C)s3)C2)s1 [Compound 83, N,N′-(5,5′-((1S,3S)-cyclohexane-1,3-diyl)bis(1,3,4-thiadiazole-5,2-diyl))bis(2-o-tolylacetamide)]	100 to 500
O=C(CN1CCCC1=O)Nc1nnc([C@H]2CCC[C@H](c3nnc(NC(=O)CN4CCCC4=O)s3)C2)s1 [Compound 85, N,N′-(5,5′-((1S,3S)-cyclohexane-1,3-diyl)bis(1,3,4-thiadiazole-5,2-diyl))bis(2-(2-oxopyrrolidin-1-yl)acetamide)]	500 to 1000
O=C(Cc1ccc(F)cc1)Nc1nnc([C@H]2CCC[C@H](c3nnc(NC(=O)Cc4ccc(F)cc4)s3)C2)s1 [Compound 88, N,N′-(5,5′-((1S,3S)-cyclohexane-1,3-diyl)bis(1,3,4-thiadiazole-5,2-diyl))bis(2-(4-fluorophenyl)acetamide)]	100 to 500
O=C(Cc1c(F)cccc1F)Nc1nnc([C@H]2CCC[C@H](c3nnc(NC(=O)Cc4c(F)cccc4F)s3)C2)s1 [Compound 89]	100 to 500

Continued, values first:

IC50 [nM]	Structure (SMILES)
1000 to 2000	O=C(CCC(F)(F)F)Nc1nnc([C@H]2CCC[C@H](c3nnc(NC(=O)CCC(F)(F)F)s3)C2)s1 [Compound 47, N,N′-(5,5′-((1S,3S)-cyclohexane-1,3-diyl)bis(1,3,4-thiadiazole-5,2-diyl))bis(4,4,4-trifluorobutanamide)]
500 to 1000	O=C(Nc1nnc([C@H]2CCC[C@H](c3nnc(NC(=O)C4CCOC4)s3)C2)s1)C1CCOC1 (stereo partly drawn) [Compound 48, N,N′-(5,5′-((1S,3S)-cyclohexane-1,3-diyl)bis(1,3,4-thiadiazole-5,2-diyl))bis(tetrahydrofuran-3-carboxamide)]
100 to 500	O=C(CC1CC1)Nc1nnc([C@H]2CCC[C@H](c3nnc(NC(=O)CC4CC4)s3)C2)s1 [Compound 49, N,N′-(5,5′-((1S,3S)-cyclohexane-1,3-diyl)bis(1,3,4-thiadiazole-5,2-diyl))bis(2-cyclopropylacetamide)]
100 to 500	O=C(Cc1ccccc1Cl)Nc1nnc([C@H]2CCC[C@H](c3nnc(NC(=O)Cc4ccccc4Cl)s3)C2)s1 [Compound 51, N,N′-(5,5′-((1S,3S)-cyclohexane-1,3-diyl)bis(1,3,4-thiadiazole-5,2-diyl))bis(2-(2-chlorophenyl)acetamide)]
< 100	CS(=O)(=O)c1cccc(CC(=O)Nc2nnc([C@H]3CCC[C@H](c4nnc(NC(=O)Cc5cccc(S(C)(=O)=O)c5)s4)C3)s2)c1 [Compound 54, N,N′-(5,5′-((1S,3S)-cyclohexane-1,3-diyl)bis(1,3,4-thiadiazole-5,2-diyl))bis(2-(3-(methylsulfonyl)phenyl)acetamide)]
100 to 500	O=C(Cc1nccs1)Nc1nnc([C@H]2CCC[C@H](c3nnc(NC(=O)Cc4nccs4)s3)C2)s1 [Compound 61]
100 to 500	N#Cc1ccc(CC(=O)Nc2nnc([C@H]3CCC[C@H](c4nnc(NC(=O)Cc5ccc(C#N)cc5)s4)C3)s2)cc1 [Compound 74, N,N′-(5,5′-((1S,3S)-cyclohexane-1,3-diyl)bis(1,3,4-thiadiazole-5,2-diyl))bis(2-(4-cyanophenyl)acetamide)]
100 to 500	O=C(Cc1ccccc1OC(F)(F)F)Nc1nnc([C@H]2CCC[C@H](c3nnc(NC(=O)Cc4ccccc4OC(F)(F)F)s3)C2)s1 [Compound 75, N,N′-(5,5′-((1S,3S)-cyclohexane-1,3-diyl)bis(1,3,4-thiadiazole-5,2-diyl))bis(2-(2-(trifluoromethoxy)phenyl)acetamide)]
100 to 500	O=C(CCc1ccccn1)Nc1nnc([C@H]2CCC[C@H](c3nnc(NC(=O)CCc4ccccn4)s3)C2)s1 [Compound 80, N,N′-(5,5′-((1S,3S)-cyclohexane-1,3-diyl)bis(1,3,4-thiadiazole-5,2-diyl))bis(3-(pyridin-2-yl)propanamide)]
< 100	O=C(Cc1ccccc1F)Nc1nnc([C@H]2CCC[C@H](c3nnc(NC(=O)Cc4ccccc4F)s3)C2)s1 [Compound 87, N,N′-(5,5′-((1S,3S)-cyclohexane-1,3-diyl)bis(1,3,4-thiadiazole-5,2-diyl))bis(2-(2-fluorophenyl)acetamide)]

From patent publication US10087172B2, “Compounds and their methods of use” (AGIOS PHARMACEUTICALS, INC, priority 2012, dated 2018)
